Results taken from patent publication US12109266B2, “Modulating gabarap to modulate immunogenic cell death” (Dana-Farber Cancer Institute, Inc., priority 2020, dated 2024).
Entries after “also recorded” stand apart in the source; their conditions may differ.

Tests used:
[1] = tested on: AMO1 and NCI-H929 multiple myeloma cell lines; assay: Apoptosis assay (Annexin-V/7-AAD flow cytometry); assay type: cell-based, human; settings: BTZ 1-10 nM, 16 h
Protocol: Apoptosis was evaluated by Annexin-V/7-Aminoactinomycin D (7-AAD) staining and flow cytometric analysis using the PE Annexin V Apoptosis Detection Kit I (BD Biosciences), following the manufacturer's instructions.
Apoptosis was evaluated by Annexin-V/7-Aminoactinomycin D (7-AAD) staining and flow cytometric analysis using the PE Annexin V Apoptosis Detection Kit I (BD Biosciences).

[2] = tested on: AMO1, H929 and KMS11 MM cells; assay: Cell surface exposure of CALR (flow cytometry); assay type: cell-based, human
Protocol: (§1) Multiple myeloma (MM) cells were seeded in 12-well plates (2×10^5 per well), treated with BTZ for 16 h at indicated concentrations, and then stained with Alexa Fluor647® anti-calreticulin antibody (ab196159, Abcam) and 7-AAD. Analysis of fluorescence intensity on 7-AAD negative cells was assessed using BD LRSFortessa™ X-20 flow cytometer.
as §1, with “MM” for “Multiple myeloma (MM)”, “cells” for “cells was assessed”, “LRSFortessa” for “LRSFortessa™”

5TGM1 MM cells = assay: Cell surface exposure of CALR (flow cytometry); assay type: cell-based, murine; settings: 16 h
Protocol: as §1
as §1, with “MM” for “Multiple myeloma (MM)”, “cells” for “cells was assessed”, “LRSFortessa” for “LRSFortessa™”

[3] = tested on: patient-derived MM cells (pdMM); assay: Phagocytosis assay of patient-derived MM cells by DCs; assay type: cell-based, human; settings: BTZ 5 and 10 nM; 4 h co-culture
Excerpt: Multiple myeloma patients BM aspirates and normal donor peripheral blood mononuclear cells (PBMCs) were obtained after written informed consent, in accordance with the declaration of Helsinki and under the approval by the Institutional Review Board of the Dana-Farber Cancer Institute. BMMCs and PBMCs were separated by Ficoll-Paque PLUS (GE Healthcare). Multiple myeloma cells from BMMCs were enriched by CD138-positive selection using magnetic microbeads (Miltenyi Biotec).
Mo-DCs were generated from CD14+ peripheral blood monocytes from healthy donors, positively selected using magnetic beads (Miltenyi Biotec), cultured for 6 days in mo-DC differentiation medium containing GM-CSF and IL-4 (130-094-812; Miltenyi Biotec). AMO1 and NCI-H929 cells lines, as well as patient MM cells, were stained with CellTrace™ Far Red (ThermoFisher Scientific), cultured with or without BTZ for 16 h, and then incubated in 48-well plates for 4 h at 1:1 ratio with CellTrace™ CFSE stained Mo-DCs. Cells were then collected, and phagocytosis analysis was performed by flow cytometry and confocal microscopy. Analagous phagocytosis experiments were performed using 5TGM1 murine multiple myeloma and JAWSII cell line that was used as source of immature murine DCs.
Flow cytometry-based assay: Collected cells were analyzed using the BD LRSFortessa X-20 flow cytometer. […]

5TGM1 cells [4] = assay: In vivo rechallenge of viable 5TGM1 cells in BTZ-treated mice; set-up: species or system mouse
Protocol: (§2) C57BL/KaLwRijHsd mice bearing 5TGM1 WT tumors were treated with BTZ as above. 2 weeks after observation of tumor regression, treated (n=5) as well as naïve mice (n=5), were rechallenged with viable 1×10^6 5TGM1 WT cells, and tumor growth was monitored over time. In a parallel experiment, spleens were harvested 2 weeks after tumor rechallenge from both groups to test T cell specific reactivity against multiple myeloma cell by ELISPOT assay (Translational Immunogenomics Laboratory, DFCI).

5TGM1 cells [5] = assay: Ex vivo IFN-gamma ELISPOT on splenocytes; assay type: in vivo, mouse; settings: splenocytes of BTZ-treated, rechallenged mice
Protocol: 5×10^5 5TGM1 WT or calrKO were treated with BTZ (7.5 nM) in vitro for 16 h. C57BL/KaLwRijHsd mice (n=8 per group) were then either vaccinated in the left flank with dying 5TGM1 WT, 5TGM1calrKO, 5TGM1 gabarapKO or not vaccinated. After 1 week, 1×10^6 WT 5TGM1 cells were injected in the contralateral flank and tumor growth was monitored over time. In a parallel experiment under the same conditions, spleens from mice were harvested 10 days after rechallenge and ELISPOT assay was performed to assess T cell specific reactivity against MM cells (Translational Immunogenomics Laboratory, DFCI).
as §2

[6] = tested on: IFN response in 5TGM1 cells; assay: Type-I IFN response in MM cells (qRT-PCR); assay type: cell-based, murine; settings: 5TGM1 Sting^KO; BTZ 7.5 nM
Protocol: Total RNA from multiple myeloma cells was prepared with TRIzol™ (ThermoFisher Scientific) and RNA Clean and Concentrator™-5 kit (Zymo Research) following the product instructions. RNA integrity and quantity was assessed by NanoDrop Spectrophotometer (ThermoFisher Scientific). For analysis of mRNA expression, oligo-dT-primed cDNA was obtained using the High Capacity cDNA Reverse Transcription Kit (ThermoFisher Scientific), and used as template to quantify: human and murine IFNA1 (Hs03044218_g1, Mm03030145_gH), human and murine IFNB1 (Hs01077958_s1, Mm00439552_s1), human and murine CXCL9 (Hs00171065_ml, Mm00434946_ml), and human and murine GAPDH (Hs02786624_g1, Mm99999915_g1). Analysis was determined by RT-PCR using TaqMan®Fast Universal PCR Master Mix on a 7500 Fast Real-Time PCR System (ThermoFisher Scientific). Comparative RT-PCR was performed in triplicate. Relative expression was calculated using the comparative […] (Ct) method.

cGAS/STING pathway = assay: Western blot of cGAS/STING pathway; assay type: cell-based, human
Protocol: Cell lysis was performed in RIPA buffer (Boston Bio Products) supplemented with Halt protease and phosphatase inhibitor cocktail (ThermoFisher Scientific). SDS-PAGE was performed on NuPage Bis-Tris gels (ThermoFisher Scientific) using MOPS or MES running buffer. Gels were dry transferred onto 0.45 μm nitrocellulose membranes using the iBlot® Dry Blotting System (ThermoFisher Scientific). The following Abs were purchased from Cell Signaling Technology: EIF2A (#5324), p-EIF2A (#3398), ATF4 (#11815), CHOP (2895), CALR (#12238), cGAS (#15102), TBK1 (#3504), pTBK1 (#5483), pIRF3 (#29047), STING (#13647). GAPDH (#2118) and B-ACTIN (#4970) were used as loading controls.

CC(C)C[C@H](NC(=O)[C@H](Cc1ccccc1)NC(=O)c1cnccn1)B(O)O [BTZ, bortezomib]
multiple myeloma cell death, as measured by phosphatidylserine exposure [1]: induced multiple myeloma cell death in a dose-dependent manner | CALR exposure on cell surface ([2]; AMO1, H929 WT, BTZ 1-10 nM, 16 h, viable (7-AAD negative) cells): triggers calreticulin (CALR; also referred to as CRT) exposure by cancer cells; also recorded: can induce hallmarks of ICD in human and murine MM cell lines; also recorded: dose-dependent increase of CTLR exposure | CALR exposure on cell surface ([2]; AMO1 STING^KO, BTZ 5 nM, 16 h): did not alter CALR exposure process | CALR exposure on cell surface ([2]; AMO1 and H929 GABARAP^KO clones): did not increase CRT exposure; also recorded: GABARAP^KO blocks CALR exposure upon BTZ | CALR exposure on cell surface ([2]; AMO1 and H929 GABARAP^KO clones, listed as Bortezomib): did not induce CALR exposure in MM cells due to GABARAP deletion | CALR exposure on cell surface ([2]; KMS11 cells (monoallelic deletion of GABARAP)): did not lead to an increase of CRT exposure | CALR exposure on cell surface (5TGM1 MM cells; 5TGM1 Sting^KO, BTZ 7.5 nM): did not alter CALR exposure process | CALR exposure on cell surface (5TGM1 MM cells; 5TGM1 WT, BTZ 1-10 nM): can induce hallmarks of ICD in human and murine MM cell lines; also recorded: dose-dependent increase of CTLR exposure | phagocytosis of BTZ-treated pdMM cells by DCs [3]: dose-dependent increase in phagocytosis of BTZ-treated pdMM cells by DCs | mice alive at the end of observation (5TGM1 cells [4]; day 30 after rechallenge): 100% | tumor development after rechallenge (5TGM1 cells [4]; live 5TGM1 WT injected two weeks after BTZ-induced tumor regression): did not result in tumor development | T cell reactivity against MM cells (IFN-gamma ELISPOT) (5TGM1 cells [5]): robust immune response against multiple myeloma cells; also recorded: generates a robust immune response against MM cells | IFN response (Ifna1, Ifnb1 qRT-PCR) [6]: abrogation of IFN response after BTZ treatment | cGAS/STING pathway activation (cGAS, pTBK1, pIRF3) (cGAS/STING pathway; AMO1 (BTZ 5-10 nM, 16 h) and NCI-H929 WT): induces accumulation of the cytosolic DNA sensor cGAS; also recorded: induces IFN-I signaling and promotes T cell activation via cGAS/STING pathway | cGAS level (cGAS/STING pathway; AMO1 STING^KO, BTZ 5 nM): significantly accumulated cGAS | p-TBK1 downstream signaling (cGAS/STING pathway; AMO1 STING^KO, BTZ 5 nM): blocked activation of downstream signaling including p-TBK1
